Test results from patent publication US20160015786A1, “MOBILIZING AGENTS AND USES THEREFOR” (MATER MEDICAL RESEARCH INSTITUTE LIMITED, priority 2013, published 2016).

Tests used:
[1] = system: colony-forming cells (CFCs); test: Mobilization of colony-forming cells (CFC/CFU) to blood and spleen, colony assays; type: in vivo, C57BL/6 mice
Procedure: Mobilization of colony-forming cells (CFCs) to the blood and spleen were measured (FIG. 1B).
This was divided into two experiments in which G-CSF was administered for 2 days in one experiment and 4 days in the other (FIG. 2). […] Mobilization of CFCs, phenotypic Lin^−CD41^−Sca1^+Kit^+ HSPCs and Lin^−CD41^− Sca1^+Kit^+CD48^−CD150^+ HSCs were measured in blood and spleens.
Additional HIF-α potentiating agents in the form of PHD inhibitors were tested for their ability to enhance mobilization induced by G-CSF.
At the end of treatment, blood was harvested by cardiac puncture, mice were sacrificed by cervical dislocation and spleens harvested. Femurs were removed, cleaned and the bone marrow was flushed with 1 mL PBS+10% newborn calf serum (NCS).
The number of phenotypic hematopoietic stem and progenitor cells remaining in the bone marrow following treatment was measured by flow cytometry using antibodies specific for lineage markers (CD3, CD5, CD45R/B220, F4/80, Gr1, CD41, Ter119), Sca-1, Kit, CD48 and CD150. Similarly, the number of phenotypic hematopoietic stem cells mobilized into the blood and spleen were measured. Colony assays were also performed on blood and spleen to determine the number of colony forming cells per mL of blood and per spleen. […] Levels of significance for differences were calculated using the Student's t-test.
All procedures were approved by the animal experimentation ethics committee of the University of Queensland. […] Plerixafor (AMD3100 octohydrochloride, Tocris Bioscience, Bristol, UK) was injected intraperitoneally as a single 16 mg/kg dose corresponding to 10 mg/kg of AMD3100 base. Tissues were harvested 1 h after Plerixafor administration. […] Control mice were injected with an equivalent volume of saline. At specified time-points, mice were anesthetized with isoflurane before cardiac puncture to harvest blood. Mice were then euthanized by cervical dislocation and BM and bones harvested.
Optimal concentrations of mouse IL-3, IL-6 and soluble kit ligand were added as conditioned media from stably transfected BHK cell lines. Colonies were counted after 7 days culture at 37° C. in a humidified incubator containing 5% CO2.

[2] = system: competitive repopulating HSC; test: Long-term competitive repopulation assay of mobilized blood; type: in vivo, C57BL/6 mice
Procedure: FIGS. 3A and 3B are graphical representations showing that Compound X synergizes with G-CSF and Plerixafor to enhance mobilization of competitive repopulating HSCs. CD45.2^+ mice were mobilized with G-CSF for 2 or 4 days with G-CSF alone (filled circles), with G-CSF in combination with Plerixafor for 1 hr (filled triangles), with Compound X for 3 days (filled squares) or with both Plerixafor, 1 hr, and Compound X, 3 days (filled inverted triangles). Blood (20 μL) was transplanted in lethally irradiated recipients together with 200,000 competitive BM cells from CD45.1^+ mice. Proportion of blood CD45.2+ leukocytes at 16 weeks post-transplantation and number of repopulating units per mL of mobilized blood calculated from donor chimerism at 16 weeks post-transplantation from (3A) 2 days treatment with G-CSF and (3B) 4 days treatment with G-CSF. Each dot is a result from one recipient mouse, bars are average. *: p<0.05; ** 0.001<p<0.01; *** p<0.001.
This synergistic increase in HSC mobilization was further confirmed in long-term competitive repopulation assays following transplantation of 20 μL mobilized blood in competition with 2×10^5 BM cells from congenic donors. […] The number of mobilized long-term competitive repopulating HSC (measured 16 weeks post-transplant) doubled after treatment with 2 days G-CSF+1 h Plerixafor+3 days Compound X (G2P1X3) compared to G-CSF+Plerixafor (G2P1, p<0.05; FIG. 3A). […] The addition of Compound X to G-CSF (G4X3) increased 6-fold the number of mobilized repopulating units compared to G-CSF (G4) alone (P<0.001; FIG. 3B). The combination of Compound X with G-CSF and Plerixafor (G4P1X3) increased mobilization of repopulating units 3-fold compared to G-CSF+Plerixafor (G4P1) alone (P<0.001; FIG. 3B).
The content of mobilized blood samples in competitive repopulating HSC was determined in competitive repopulation assays as previously described (12,17). The day prior to blood harvest, recipient congenic B6.SJL CD45.1^+ female mice were lethally irradiated with 11.0Gy in two split doses 4 hours apart. 50 μL blood samples from 6 mobilized CD45.2^+ C57BL/6 donor mice were pooled within each treatment group and 20 μL blood aliquots were taken from this pool and mixed with 200,000 competitive whole BM cells from untreated B6.SJL CD45.1^+ in a total volume of 200 μL saline, and injected retro-orbitally into each lethally irradiated recipient. Recipients were maintained with antibiotics for the first 3 weeks post-transplant and tail bled 8, 12 and 16 weeks post-transplant to determine CD45.2 (test donor blood) versus CD45.1 (competitive whole BM cells) chimerism in myeloid, B and T lineages by flow cytometry using CD45.1-PE, CD45.2-allophycocyanin (APC), CD3-FITC, B220-allophycocyanin (APC)-cyanin (CY) 7, CD11b-PECY7, Ly6G-Pacific Blue. Content in repopulating units (RU) was calculated as previously described (18-19).

[3] = Compound X added to 2 days G-CSF plus Plerixafor, p<0.005

O=C(O)CNC(=O)c1ncc2cc(Sc3ccccc3)ccc2c1O [Compound X, [(4-Hydroxy-7-phenylsulfanyl-isoquinoline-3-carbonyl)-amino]-acetic acid]
mobilization of HSPC to the spleen ([1]; 1 hr following Plerixafor treatment with or without Compound X, FIG. 1D): no significant mobilization
day of Compound X administration at which CFC mobilization into blood and spleen peaks ([1]; Compound X 1-4 days, G-CSF for the last 2 days, FIG. 1C): 3 days
further increase of CFC/mL mobilized into blood [1, 3]: 2.5 fold
further increase of CFC/spleen [1, 3]: 4 fold
boost of CFC/mL blood ([1]; Compound X added to 4 days G-CSF plus Plerixafor, p<0.005): 2.5 fold
CFC mobilization into the blood ([1]; Compound X alone for 3 days): did not induce
increase in CFCs mobilized per mL blood ([1]; Example 1: Compound X 3 days added to G-CSF, following 2 days of G-CSF, FIG. 1B): 2.5 fold
increase of CFCs mobilized to the spleen ([1]; Example 1: Compound X 3 days added to G-CSF, following 3 days of G-CSF, FIG. 1B): 6 fold
increase in the number of CFC/mL blood ([1]; Example 3: 4 days G-CSF, addition of Compound X, P<0.001): 4 fold
number of CFC/spleen ([1]; Example 3: 4 days G-CSF, addition of Compound X, P<0.01): further significant increase
mobilizing effect ([1]; Example 3: Compound X alone (data not shown)): no mobilizing effect
CFC mobilized to the blood versus G-CSF alone ([1]; Example 3: G-CSF 250 μg/kg/day 2 days + Compound X 20 mg/kg/day 3 days (G+X3), p<0.001, FIG. 2B): 4 fold
CFC mobilized to the spleen versus G-CSF alone ([1]; Example 3: G-CSF 2 days + Compound X 20 mg/kg/day 3 days (G+X3), p<0.001, FIG. 2B): 47 fold
number of CFC mobilized per mL blood in response to Plerixafor ([1]; Plerixafor 1 h plus 2 to 3 day treatment with Compound X, FIG. 1D): significantly increased
number of mobilized long-term competitive repopulating HSC versus G-CSF+Plerixafor ([2]; 16 weeks post-transplant, G2P1X3 vs G2P1, p<0.05, FIG. 3A): doubled
competitive repopulating HSC mobilized (CD45.2/CD45.1 chimerism) versus G-CSF+Plerixafor ([2]; 2 days G-CSF+Plerixafor+Compound X (G2P1X3) vs G2P1, p<0.01): 6 fold
number of long-term repopulating HSC per mL of blood ([2]; Compound X in combination with G-CSF and Plerixafor (discussion)): tripled
increase in mobilization of repopulating units versus G-CSF+Plerixafor ([2]; G4P1X3 vs G4P1, P<0.001, FIG. 3B): 3 fold
increase in number of mobilized repopulating units versus G-CSF alone ([2]; G-CSF 4 days + Compound X (G4X3) vs G4, P<0.001, FIG. 3B): 6 fold
